Experiment [1] deals with LDLr−/− mice. Kind of experiment: Liver lipid analysis, NASH treatment with 27-HC. It counts as in vivo. The protocol:
(§1) The experimental approach consisted of utilizing low-density (LDL) receptor-deficient mice (LDLr−/−) on a C57B16 background. This mouse model is predisposed to elevated serum cholesterol levels when fed a high-fat diet. On a normal chow diet, these mice have a three-fold increase in cholesterol levels when compared to controls.^(39) The lab determined that two weeks is sufficient for mice to reach a steatotic and inflamed liver state.
Experiments were performed in accordance with Dutch law for animal experimentation and approved by the Committee for Animal Welfare of the University of Maastricht. […]
Homogenization of approximately 50 mg of frozen liver tissue was completed at 5000 rpm for 30 seconds with 1.0 mm glass beads along with 1.0 ml SET buffer (sucrose 250 mmol/L, EDTA 2 mmol/L, and Tris 10 mmol/L). […] After adding 200 μl of the reagents (50 parts A, 1 part B) and letting the mixture stand for 30 minutes at 37° C., the absorbance was measured utilizing the enzymatic color test bicinchoninic acid (BCA) method (Pierce, Rockford, Ill.) at a wavelength of 560 nm with a Benchmark 550 Micro-plate reader (170-6750XTU; Bio-Rad, Hercules, Calif.). […]

Experiment [2] has as its system LDLr−/− mice. Description: Plasma lipid analysis, NASH treatment with 27-HC. It counts as in vivo. The protocol:
as §1
Experiments were performed in accordance with Dutch law for animal experimentation and approved by the Committee for Animal Welfare of the University of Maastricht. In this study, the aim was to investigate the ability of 27-hydroxycholesterol (generous gift from Dr. Norman B. Javitt; New York University School of Medicine) to reduce hepatic inflammation and to characterize its potential use as a therapeutic agent for NASH patients. […]
Plasma cholesterol and triglyceride measurements were tested with the enzymatic color tests. […] Absorbance was measured at the 490 nm wavelength with a Benchmark 550 Micro-plate reader. […] Subsequently, 200 μl of reagent A was added, mixed, and after 15 minutes of incubation, read at a wavelength of 545 nm for the initial absorbance. […] The final absorbance was then measured at 545 nm. The concentration of triglycerides was then calculated by subtracting the initial concentrations from the final concentrations. […]

Experiment [3] deals with LDLr−/− mice. Kind of experiment: Hepatic inflammation: immunohistochemical staining for infiltrated macrophages (MAC1) and neutrophils (NIMP). In kind it is in vivo. The conditions noted are these: vs Group C; for Infiltrated macrophages (MAC1 staining): FIG. 3A. The protocol:
(§2) A total of five different experimental groups, ranging from eigtht to nine mice per group, were used to assess the effects of 27-HC. The 27-HC was dissolved in 2-hydroxypropyl-β-cyclodextrin (Sigma-Aldrich GmbH H5784; St. Louis, Mo.) and injected with a concentration of 40 mg of 27-HC per kilogram of body weight via a subcutaneous injection. Mice in Group A received a chow diet and control injections consisting of 2-hydroxypropyl-β-cyclodextrin dissolved in sodium chloride. Group B mice were also on the chow diet but are given daily subcutaneous injections of 27-HC. Group C were the mice that received the high-fat diet (21% fat; 0.2% cholesterol) and control injections. To differentiate between a therapeutic and a regression effect of the 27-HC, the following two groups were set up: a high-fat diet with daily 27-HC injections (Group D) and a high-fat diet group with two weeks of control injections followed by a week of 27-HC injections (Group E). Mice were housed under standard conditions with food and water available ad libidum.
One day previous to the start of the experiment, the mice were weighed and 100-200 μl of blood were collected in a capillary tube after four hours of fasting via an incision in the tail vein. On day 0, the feeding of specialized diets and injections began according to each group. On the 21st day after the start of the experiment, the animals were weighed and fasted for four hours and had another 100-200 μl of blood drawn and collected in a capillary tube via an incision in the tail vein. Afterwards, the mice were sacrificed via cervical dislocation and immediately had their livers removed via a laparotomy consisting of an incision from the pelvis to the rib cage to gain access into the abdomen. […]
Nikon digital camera model DMX1200 and ACT-1 v2.63 software from Nikon Corporation were used to photograph each section. […] The positive cells for each picture were then counted or scored and noted as cells or lipid droplets per square millimeter, respectively.

In experiment [4] the test system is hyperlipidemic LDLR knockout mice. Description: HFC diet supplemented with 27-hydroxycholesterol in hyperlipidemic LDLR knockout mice. In kind it is in vivo. The conditions noted are these: HFC diet supplemented with 27-hydroxycholesterol 0.1% w/w for three weeks vs HFC diet. The source says:
To determine whether exogenous 27-HC can reduce hepatic inflammation, hyperlipidemic LDLR knockout mice may be fed either chow, HFC diet or HFC diet supplemented with 27-hydroxycholesterol (0.1% w/w) for three weeks. Then, the mice may be sacrificed and detailed characterization of liver and plasma may be performed.

Another experiment has as its system fibroblasts. Description: Incubation of fibroblasts with 27-HC, endolysosomal cholesterol accumulation. In kind it is cell-based.
The test system of experiment [5] is LDLr−/− mice. Description: Steatosis scoring by HE and oil red O staining of liver sections. In kind it is in vivo. The conditions noted are these: high-fat diet 27-HC-treated groups. The protocol:
as §2, with “libidum. […]” for “libidum.”
Stained sections were scored in a blind manner by a specialized animal pathologist. […] Sections were scored for the quantity of fat droplets and for the foamy appearance of Kupffer cells. […]
To verify the quantification of fat, 7 μm thick frozen sections were stained with oil red O (ORO; O0725; Sigma-Aldrich), the neutral lipid marker. […]

For the compound `C[C@@H](CO)CCC[C@@H](C)[C@H]1CC[C@H]2[C@@H]3CC=C4C[C@@H](O)CC[C@]4(C)[C@H]3CC[C@]12C` [27-HC, 27-hydroxycholesterol], the Liver cholesterol levels entry in the experiment on LDLr−/− mice [1] (27-HC 40 mg/kg s.c. injected groups vs control-injected groups, 3 weeks, FIG. 2C) is reported as “do not show altered cholesterol levels”. Besides, the Liver triglycerides entry in the experiment on LDLr−/− mice [1] (among high-fat diet groups C-E, FIG. 2D) was “no significant differences”. For the same compound, the Plasma cholesterol levels entry with LDLr−/− mice [2] (27-HC 40 mg/kg s.c. injected groups vs control-injected groups, 3 weeks, FIG. 2A) was “do not show altered cholesterol levels”. The Plasma triglycerides entry in the experiment on LDLr−/− mice [2] (Group D: high-fat diet, daily 27-HC 40 mg/kg s.c. for three weeks, vs Groups C and E, FIG. 2B) was “diminished”. Further, the “Infiltrated macrophages (MAC1 staining)” value in the experiment on LDLr−/− mice [3] (Group D: high-fat diet, daily 27-HC for three weeks) was “significantly decreased”. In addition, the “Neutrophils (NIMP staining)” value in the experiment on LDLr−/− mice [3] (Group D: high-fat diet, daily 27-HC for three weeks, FIG. 3B) was “decreased neutrophils”. The “Infiltrated macrophages (MAC1 staining)” value in the experiment on LDLr−/− mice [3] (Group E: high-fat diet, two weeks control injections then one week 27-HC) is recorded as “significantly decreased”. For the same compound, in experiment [4], the “Liver and systemic inflammation” value is “reduced liver and systemic inflammation”; the Lysosomal cholesterol accumulation result is “less lysosomal cholesterol accumulation”. Further, the Endolysosomal cholesterol accumulation entry in the experiment on fibroblasts is on record as “decrease endolysosomal cholesterol accumulation”. In addition, the “Steatosis score, HE staining” value with LDLr−/− mice [5] (FIG. 2E) was “do not show any statistical significance or trends”. The “Steatosis score, oil Red O staining” value with LDLr−/− mice [5] (FIG. 2F) is given as “do not show any statistical significance or trends”.

(Values after patent publication US20130184246A1, “METHOD FOR TREATING FATTY LIVER DISEASES, IN PARTICULAR NON-ALCOHOLIC STEATOHEPATITIS” (priority 2010, published 2013).)
